Data as given in ChEMBL document CHEMBL4017493, “Peptide Half-Life Extension: Divalent, Small-Molecule Albumin Interactions Direct the Systemic Properties of Glucagon-Like Peptide 1 (GLP-1) Analogues” (J Med Chem, 2017).
Activity calls are given as the source filed them. The rule behind the calls is not given here.

Legend:
[1] = Induction of self aggregation in pH 7.4 PBS buffer assessed as retention volume by size exclusion chromatographic method
[2] = test system: Mus musculus; assay: Antiobesity activity in NMRI mouse assessed as reduction in cumulative food intake at 10 nmol/ml, sc measured up to 20 hrs; format: functional, organism-based
[3] = target: Albumin (Homo sapiens, UniProt P02768); assay: Binding affinity to human serum albumin by SPR analysis; format: ADME; settings: isolated protein
[4] = test system: Mus musculus; assay: Antidiabetic activity in NMRI mouse assessed as blood glucose AUC (0 to 120 mins) at 10 nmol/ml, sc administered 45 mins prior to glucose challenge by OGTT (reference value: 1725 +/- 257 mmol/L); format: functional, organism-based; set-up: dose 10 nmol/ml, time < 2 hr
[5] = test system: Mus musculus; assay: Antiobesity activity in NMRI mouse assessed as reduction in acute food intake at 10 nmol/ml, sc measured up to 20 hrs; format: functional, organism-based
[6] = Half life in C57Bl/6 mouse plasma at 10 nmol/ml, sc; format: ADME
[7] = Tmax in C57Bl/6 mouse plasma at 10 nmol/ml, sc; format: ADME
[8] = Induction of monodisperse self aggregation in pH 7.4 PBS buffer by dynamic light scattering method
[9] = Induction of self aggregation in pH 7.4 PBS buffer assessed as supramolecular hydrodynamic radii at 1 mg/ml by dynamic light scattering method
[10] = test system: Mus musculus; assay: Antiobesity activity in NMRI mouse assessed as food intake at 10 nmol/ml, sc measured after 20 hrs (reference value: 3.51 +/- 0.49 g); format: functional
[11] = Half life in iv dosed human; format: ADME, organism-based; settings: in vivo

Sequence of Albumin (P02768 whole entry): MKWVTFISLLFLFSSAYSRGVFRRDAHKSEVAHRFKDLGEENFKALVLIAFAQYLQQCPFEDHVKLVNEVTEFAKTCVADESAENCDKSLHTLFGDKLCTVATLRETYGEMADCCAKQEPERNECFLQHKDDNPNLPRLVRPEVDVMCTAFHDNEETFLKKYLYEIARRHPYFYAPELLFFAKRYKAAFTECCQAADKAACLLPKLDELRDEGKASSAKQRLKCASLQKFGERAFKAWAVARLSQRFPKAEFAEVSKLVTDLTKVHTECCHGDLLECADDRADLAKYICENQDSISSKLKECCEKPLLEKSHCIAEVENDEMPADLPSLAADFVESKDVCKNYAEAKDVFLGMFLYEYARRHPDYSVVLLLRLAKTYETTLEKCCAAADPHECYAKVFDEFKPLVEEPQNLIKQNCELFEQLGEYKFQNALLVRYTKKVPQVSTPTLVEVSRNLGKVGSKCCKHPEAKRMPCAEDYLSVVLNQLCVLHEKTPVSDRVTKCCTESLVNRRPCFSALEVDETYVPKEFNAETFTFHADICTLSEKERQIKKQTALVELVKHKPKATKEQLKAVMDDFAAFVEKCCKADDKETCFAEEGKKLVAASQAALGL

| Compound | Vr [1] | Activity [2] | PB [3] | also measured |
| --- | --- | --- | --- | --- |
| CC[C@H](C)[C@H](NC(=O)[C@H](Cc1ccccc1)NC(=O)[C@H](CCC(=O)O)NC(=O)[C@H](CCCCNC(=O)COc1ccc(-c2ccccc2)cc1C(=O)O)NC(=O)[C@H](C)NC(=O)[C@H](C)NC(=O)[C@H](CCC(N)=O)NC(=O)CNC(=O)[C@H](CCC(=O)O)NC(=O)[C@H](CC(C)C)NC(=O)[C@H](Cc1ccc(O)cc1)NC(=O)[C@H](CO)NC(=O)[C@H](CO)NC(=O)[C@@H](NC(=O)[C@H](CC(=O)O)NC(=O)[C@H](CO)NC(=O)[C@@H](NC(=O)[C@H](Cc1ccccc1)NC(=O)[C@@H](NC(=O)CNC(=O)[C@H](CCC(=O)O)NC(=O)[C@H](C)NC(=O)[C@@H](N)Cc1cnc[nH]1)[C@@H](C)O)[C@@H](C)O)C(C)C)C(=O)N[C@@H](C)C(=O)N[C@@H](Cc1c[nH]c2ccccc12)C(=O)N[C@@H](CC(C)C)C(=O)N[C@H](C(=O)N[C@@H](CCCNC(=N)N)C(=O)NCC(=O)N[C@@H](CCCNC(=N)N)C(=O)NCC(=O)O)C(C)C | 9.8 to 16 mL | – | – | – |
| CC[C@H](C)[C@H](NC(=O)[C@H](Cc1ccccc1)NC(=O)[C@H](CCC(=O)O)NC(=O)[C@H](CCCCNC(=O)COCCOCCNC(=O)COc1ccc(-c2ccc(F)cc2F)cc1C(=O)O)NC(=O)[C@H](C)NC(=O)[C@H](C)NC(=O)[C@H](CCC(N)=O)NC(=O)CNC(=O)[C@H](CCC(=O)O)NC(=O)[C@H](CC(C)C)NC(=O)[C@H](Cc1ccc(O)cc1)NC(=O)[C@H](CO)NC(=O)[C@H](CO)NC(=O)[C@@H](NC(=O)[C@H](CC(=O)O)NC(=O)[C@H](CO)NC(=O)[C@@H](NC(=O)[C@H](Cc1ccccc1)NC(=O)[C@@H](NC(=O)CNC(=O)[C@H](CCC(=O)O)NC(=O)[C@H](C)NC(=O)[C@@H](N)Cc1cnc[nH]1)[C@@H](C)O)[C@@H](C)O)C(C)C)C(=O)N[C@@H](C)C(=O)N[C@@H](Cc1c[nH]c2ccccc12)C(=O)N[C@@H](CC(C)C)C(=O)N[C@H](C(=O)N[C@@H](CCCNC(=N)N)C(=O)NCC(=O)N[C@@H](CCCNC(=N)N)C(=O)NCC(=O)O)C(C)C | – | inactive | – | – |
| CC[C@H](C)[C@H](NC(=O)[C@H](Cc1ccccc1)NC(=O)[C@H](CCC(=O)O)NC(=O)[C@H](CCCCNC(=O)CC[C@H](NC(=O)Cc1c(C)n(C(=O)c2ccc(Cl)cc2)c2ccc(OC)cc12)C(=O)O)NC(=O)[C@H](C)NC(=O)[C@H](C)NC(=O)[C@H](CCC(N)=O)NC(=O)CNC(=O)[C@H](CCC(=O)O)NC(=O)[C@H](CC(C)C)NC(=O)[C@H](Cc1ccc(O)cc1)NC(=O)[C@H](CO)NC(=O)[C@H](CO)NC(=O)[C@@H](NC(=O)[C@H](CC(=O)O)NC(=O)[C@H](CO)NC(=O)[C@@H](NC(=O)[C@H](Cc1ccccc1)NC(=O)[C@@H](NC(=O)CNC(=O)[C@H](CCC(=O)O)NC(=O)[C@H](C)NC(=O)[C@@H](N)Cc1cnc[nH]1)[C@@H](C)O)[C@@H](C)O)C(C)C)C(=O)N[C@@H](C)C(=O)N[C@@H](Cc1c[nH]c2ccccc12)C(=O)N[C@@H](CC(C)C)C(=O)N[C@H](C(=O)N[C@@H](CCCNC(=N)N)C(=O)NCC(=O)N[C@@H](CCCNC(=N)N)C(=O)NCC(=O)O)C(C)C | 6.8 to 16 mL | inactive | Dose-dependent effect | AUC [4]: 614 mmol·min/L; Activity [5]: inactive; half-life [6]: 55 min; Tmax [7]: 30 min |
| CC[C@H](C)[C@H](NC(=O)[C@H](Cc1ccccc1)NC(=O)[C@H](CCC(=O)O)NC(=O)[C@H](CCCCNC(=O)[C@H](CCCNC(=O)COc1ccc(-c2ccc(F)cc2F)cc1C(=O)O)NC(=O)CC[C@H](NC(=O)Cc1c(C)n(C(=O)c2ccc(Cl)cc2)c2ccc(OC)cc12)C(=O)O)NC(=O)[C@H](C)NC(=O)[C@H](C)NC(=O)[C@H](CCC(N)=O)NC(=O)CNC(=O)[C@H](CCC(=O)O)NC(=O)[C@H](CC(C)C)NC(=O)[C@H](Cc1ccc(O)cc1)NC(=O)[C@H](CO)NC(=O)[C@H](CO)NC(=O)[C@@H](NC(=O)[C@H](CC(=O)O)NC(=O)[C@H](CO)NC(=O)[C@@H](NC(=O)[C@H](Cc1ccccc1)NC(=O)[C@@H](NC(=O)CNC(=O)[C@H](CCC(=O)O)NC(=O)[C@H](C)NC(=O)[C@@H](N)Cc1cnc[nH]1)[C@@H](C)O)[C@@H](C)O)C(C)C)C(=O)N[C@@H](C)C(=O)N[C@@H](Cc1c[nH]c2ccccc12)C(=O)N[C@@H](CC(C)C)C(=O)N[C@H](C(=O)N[C@@H](CCCNC(=N)N)C(=O)NCC(=O)N[C@@H](CCCNC(=N)N)C(=O)NCC(=O)O)C(C)C | 6.6 mL | Active | Dose-dependent effect | Activity [8]: Active; Activity [9]: 21.6 nm; AUC [4]: 642 mmol·min/L; Activity [10]: 1.62 g; half-life [6]: 299 min; Tmax [7]: 240 min |
| CC[C@H](C)[C@H](NC(=O)[C@H](Cc1ccccc1)NC(=O)[C@H](CCC(=O)O)NC(=O)[C@H](CCCCNC(=O)COc1ccc(-c2ccc(F)cc2F)cc1C(=O)O)NC(=O)[C@H](C)NC(=O)[C@H](C)NC(=O)[C@H](CCC(N)=O)NC(=O)CNC(=O)[C@H](CCC(=O)O)NC(=O)[C@H](CC(C)C)NC(=O)[C@H](Cc1ccc(O)cc1)NC(=O)[C@H](CO)NC(=O)[C@H](CO)NC(=O)[C@@H](NC(=O)[C@H](CC(=O)O)NC(=O)[C@H](CO)NC(=O)[C@@H](NC(=O)[C@H](Cc1ccccc1)NC(=O)[C@@H](NC(=O)CNC(=O)[C@H](CCC(=O)O)NC(=O)[C@H](C)NC(=O)[C@@H](N)Cc1cnc[nH]1)[C@@H](C)O)[C@@H](C)O)C(C)C)C(=O)N[C@@H](C)C(=O)N[C@@H](Cc1c[nH]c2ccccc12)C(=O)N[C@@H](CC(C)C)C(=O)N[C@H](C(=O)N[C@@H](CCCNC(=N)N)C(=O)NCC(=O)N[C@@H](CCCNC(=N)N)C(=O)NCC(=O)O)C(C)C | – | inactive | Dose-dependent effect | – |
| CC[C@H](C)[C@H](NC(=O)[C@H](Cc1ccccc1)NC(=O)[C@H](CCC(=O)O)NC(=O)[C@H](CCCCN)NC(=O)[C@H](C)NC(=O)[C@H](C)NC(=O)[C@H](CCC(N)=O)NC(=O)CNC(=O)[C@H](CCC(=O)O)NC(=O)[C@H](CC(C)C)NC(=O)[C@H](Cc1ccc(O)cc1)NC(=O)[C@H](CO)NC(=O)[C@H](CO)NC(=O)[C@@H](NC(=O)[C@H](CC(=O)O)NC(=O)[C@H](CO)NC(=O)[C@@H](NC(=O)[C@H](Cc1ccccc1)NC(=O)[C@@H](NC(=O)CNC(=O)[C@H](CCC(=O)O)NC(=O)[C@H](C)NC(=O)[C@@H](N)Cc1c[nH]cn1)[C@@H](C)O)[C@@H](C)O)C(C)C)C(=O)N[C@@H](C)C(=O)N[C@@H](Cc1c[nH]c2ccccc12)C(=O)N[C@@H](CC(C)C)C(=O)N[C@H](C(=O)N[C@@H](CCCNC(=N)N)C(=O)NCC(=O)N[C@@H](CCCNC(=N)N)C(=O)NCC(=O)O)C(C)C | 14.1 mL | – | – | – |
| CC[C@H](C)[C@H](NC(=O)[C@H](Cc1ccccc1)NC(=O)[C@H](CCC(=O)O)NC(=O)[C@H](CCCCNC(=O)COCCOCCNC(=O)[C@H](CCCNC(=O)COc1ccc(-c2ccc(F)cc2F)cc1C(=O)O)NC(=O)CC[C@H](NC(=O)Cc1c(C)n(C(=O)c2ccc(Cl)cc2)c2ccc(OC)cc12)C(=O)O)NC(=O)[C@H](C)NC(=O)[C@H](C)NC(=O)[C@H](CCC(N)=O)NC(=O)CNC(=O)[C@H](CCC(=O)O)NC(=O)[C@H](CC(C)C)NC(=O)[C@H](Cc1ccc(O)cc1)NC(=O)[C@H](CO)NC(=O)[C@H](CO)NC(=O)[C@@H](NC(=O)[C@H](CC(=O)O)NC(=O)[C@H](CO)NC(=O)[C@@H](NC(=O)[C@H](Cc1ccccc1)NC(=O)[C@@H](NC(=O)CNC(=O)[C@H](CCC(=O)O)NC(=O)[C@H](C)NC(=O)[C@@H](N)Cc1cnc[nH]1)[C@@H](C)O)[C@@H](C)O)C(C)C)C(=O)N[C@@H](C)C(=O)N[C@@H](Cc1c[nH]c2ccccc12)C(=O)N[C@@H](CC(C)C)C(=O)N[C@H](C(=O)N[C@@H](CCCNC(=N)N)C(=O)NCC(=O)N[C@@H](CCCNC(=N)N)C(=O)NCC(=O)O)C(C)C | – | Active | – | – |
| CC[C@H](C)[C@H](NC(=O)[C@H](Cc1ccccc1)NC(=O)[C@H](CCC(=O)O)NC(=O)[C@H](CCCCN)NC(=O)[C@H](C)NC(=O)[C@H](C)NC(=O)[C@H](CCC(N)=O)NC(=O)CNC(=O)[C@H](CCC(=O)O)NC(=O)[C@H](CC(C)C)NC(=O)[C@H](Cc1ccc(O)cc1)NC(=O)[C@H](CO)NC(=O)[C@H](CO)NC(=O)[C@@H](NC(=O)[C@H](CC(=O)O)NC(=O)[C@H](CO)NC(=O)[C@@H](NC(=O)[C@H](Cc1ccccc1)NC(=O)[C@@H](NC(=O)CNC(=O)[C@H](CCC(=O)O)NC(=O)[C@H](C)NC(=O)[C@H](Cc1cnc[nH]1)NC(=O)[C@H](CCCNC(=N)N)NC(=O)[C@H](CCC(=O)O)NC(=O)[C@H](Cc1ccccc1)NC(=O)[C@H](CCC(=O)O)NC(=O)[C@H](CC(=O)O)NC(=O)[C@@H](N)Cc1cnc[nH]1)[C@@H](C)O)[C@@H](C)O)C(C)C)C(=O)N[C@@H](C)C(=O)N[C@@H](Cc1c[nH]c2ccccc12)C(=O)N[C@@H](CC(C)C)C(=O)N[C@H](C(=O)N[C@@H](CCCCN)C(=O)NCC(=O)N[C@@H](CCCNC(=N)N)C(N)=O)C(C)C | – | – | – | half-life [11]: < 2 min |
